Values quoted from earlier work, collected in patent US11547674B2, “Protein-polymer hybrid biomaterials” (The Regents of the University of California, priority 2018, dated 2023).

Biological target: Bacillus stearothermophillus LDH (Geobacillus stearothermophilus, UniProt P00344)
Conditions: read-out: Km of oxamate for LDH

Sequence of Bacillus stearothermophillus LDH (P00344 whole entry): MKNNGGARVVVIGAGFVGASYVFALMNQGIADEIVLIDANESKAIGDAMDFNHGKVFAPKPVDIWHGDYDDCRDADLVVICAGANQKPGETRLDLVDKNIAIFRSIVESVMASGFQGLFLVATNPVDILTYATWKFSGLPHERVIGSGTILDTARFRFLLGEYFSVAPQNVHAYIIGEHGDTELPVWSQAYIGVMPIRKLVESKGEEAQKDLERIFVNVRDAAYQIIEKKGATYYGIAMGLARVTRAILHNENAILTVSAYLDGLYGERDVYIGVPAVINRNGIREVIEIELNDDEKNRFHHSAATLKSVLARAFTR

NC(=O)C(=O)O [oxamate]
Km: 600 µM
